Where two headings read alike, the source gives them in different places. Where only a bound is given, the exact number is not on record here.

The target of series [1] is T1, human native ganglion-type nicotinic receptors (likely α3β4) (Homo sapiens, UniProt P30926+P32297).
T1 construct: human native ganglion-type nicotinic receptors (likely α3β4); endogenous in cells; host or cells: SH-SY5Y
Briefly: [3H]epibatidine binding, SH-SY5Y membranes.

The test system of series [2] is CYP1A2, CYP2C9, CYP2C19, CYP2D6, CYP3A4 (5 major CYPs). The series can be described thus: in vitro. The series is classed as in vitro ADME. Particulars: human. The method, then: Inhibition of CYP1A2, CYP2C9, CYP2C19, CYP2D6 and CYP3A4 catalytic activity by (R)-3-((E)-2-(pyrrolidin-3-yl)vinyl)-5-(tetrahydropyran-4-yloxy)pyridine or a slat thereof was assessed using a fluorogenic CYP assay. Probe substrates which fluoresce upon CYP catalyzed oxidation were used to evaluate the degree of inhibition of the test substrate. A single concentration of each probe substrate (at approximately the apparent Km value) and two different concentrations of (R)-3-((E)-2-(pyrrolidin-3-yl)vinyl)-5-(tetrahydropyran-4-yloxy)pyridine hemigalactarate (2 and 20 μM) were tested in duplicate. Fluorescence intensity at selected wavelengths was used as a measure of enzyme activity. Decreased fluorescence in the presence of (R)-3-((E)-2-(pyrrolidin-3-yl)vinyl)-5-(tetrahydropyran-4-yloxy)pyridine or a sat thereof was an indication of inhibition. […] Duplicate samples were run alongside the positive and negative controls. Incubation of test samples was performed at 37° C. Experimental parameters are outlined in Table 2.

Series [3] addresses Pgp brain pump (Homo sapiens, UniProt P08183). It is filed as in vitro ADME. The settings on record: not told.
Series [4] relates to panel of 65 receptors. Briefly: Multiple receptor screening assay. It is filed as binding. The settings on record: single concentration of 10 μM. The method, then:
(R)-3-((E)-2-(Pyrrolidin-3-yl)vinyl)-5-(tetrahydropyran-4-yloxy)pyridine or a salt thereof was tested for selectivity against a panel of 65 receptors.

The subject of series [5] is CYP2D6 and FMO3. It is filed as in vitro ADME. Particulars: human. From the text: (§1) Therefore any variation of (R)-3-((E)-2-(pyrrolidin-3-yl)vinyl)-5-(tetrahydropyran-4-yloxy)pyridine or a salt thereof metabolism in human due to CYP polymorphism is expected to be less than 2 fold due to the significant renal clearance and low hepatic clearance.
Series [6] is classed as in vitro ADME. The settings on record: human.
Text: as §1

Series [7] addresses T2, hERG (Homo sapiens, UniProt Q12809).
T2 construct: expressed in transfected cells; host or cells: HEK-239 (so in the source)
The series can be described thus: cell-based.

Series [8] deals with CYP2B6 (Homo sapiens, UniProt P20813). It is filed as in vitro ADME.
Chain of CYP2B6 (P20813 whole entry): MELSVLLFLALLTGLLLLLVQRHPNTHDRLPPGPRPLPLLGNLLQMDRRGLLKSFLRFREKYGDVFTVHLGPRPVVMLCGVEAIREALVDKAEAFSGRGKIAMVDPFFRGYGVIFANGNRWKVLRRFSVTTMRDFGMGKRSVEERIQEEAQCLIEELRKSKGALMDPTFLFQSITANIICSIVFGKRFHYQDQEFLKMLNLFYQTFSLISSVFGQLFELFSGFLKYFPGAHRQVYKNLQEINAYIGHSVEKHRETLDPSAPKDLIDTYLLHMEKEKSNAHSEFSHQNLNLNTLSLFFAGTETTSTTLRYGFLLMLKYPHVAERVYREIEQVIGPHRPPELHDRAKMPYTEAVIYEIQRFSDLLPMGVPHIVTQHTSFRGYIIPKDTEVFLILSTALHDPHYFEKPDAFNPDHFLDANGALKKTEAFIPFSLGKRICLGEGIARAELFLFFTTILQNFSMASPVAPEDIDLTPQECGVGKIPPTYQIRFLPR
For series [9], the target named is T3, rat native α7 receptors (Rattus norvegicus, UniProt Q05941).
T3 construct: rat native α7 receptors in rat hippocampal membranes; from tissue; host or cells: rat hippocampus (female Sprague-Dawley)
T3 sequence (Q05941 23-502): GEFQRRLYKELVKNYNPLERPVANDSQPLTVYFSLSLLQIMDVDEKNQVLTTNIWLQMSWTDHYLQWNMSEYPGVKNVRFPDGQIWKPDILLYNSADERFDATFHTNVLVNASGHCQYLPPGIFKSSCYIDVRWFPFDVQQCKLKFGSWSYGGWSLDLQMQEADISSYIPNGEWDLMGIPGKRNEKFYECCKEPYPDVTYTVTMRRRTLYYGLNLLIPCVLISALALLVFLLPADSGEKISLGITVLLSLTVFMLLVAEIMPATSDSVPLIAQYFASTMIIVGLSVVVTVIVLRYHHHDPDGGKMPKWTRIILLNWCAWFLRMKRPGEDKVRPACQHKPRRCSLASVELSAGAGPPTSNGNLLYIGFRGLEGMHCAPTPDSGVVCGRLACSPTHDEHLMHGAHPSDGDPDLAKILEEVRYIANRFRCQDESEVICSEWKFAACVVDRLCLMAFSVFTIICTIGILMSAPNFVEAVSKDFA
Briefly: [3H]MLA binding, rat hippocampal membranes. The protocol:
Rats (female, Sprague-Dawley), weighing 150-250 g, were maintained on a 12 h light/dark cycle and were allowed free access to water and food supplied by PMI Nutrition International, Inc. Animals were anesthetized with 70% CO2, and then decapitated. Brains were removed and placed on an ice-cold platform. The hippocampus was removed and placed in 10 volumes (weight:volume) of ice-cold preparative buffer (137 mM NaCl, 10.7 mM KCl, 5.8 mM KH2PO4, 8 mM Na2HPO4, 20 mM HEPES (free acid), 5 mM iodoacetamide, 1.6 mM EDTA, pH 7.4); PMSF, dissolved in methanol to a final concentration of 100 μM, was added and the tissue suspension was homogenized by Polytron. […] Protein was determined by the method of Lowry et al., J. Biol. Chem. 193: 265 (1951), using bovine serum albumin as the standard.
The binding of [^3H]MLA was measured using a modification of the methods of Davies et al., Neuropharmacol. […] The binding of [^3H]MLA was determined using a 2 h incubation at 21° C. […] Non-specific binding was determined by inclusion of 50 μM non-radioactive MLA in selected wells.
The inhibition of [^3H]MLA binding by test compounds was determined by including seven different concentrations of the test compound in selected wells. […] Inhibition constants (Ki values), reported in nM, were calculated from the IC50 values using the method of Cheng et al., Biochem. Pharmacol. 22: 3099-3108 (1973).

T2 sequence (Q12809 whole entry): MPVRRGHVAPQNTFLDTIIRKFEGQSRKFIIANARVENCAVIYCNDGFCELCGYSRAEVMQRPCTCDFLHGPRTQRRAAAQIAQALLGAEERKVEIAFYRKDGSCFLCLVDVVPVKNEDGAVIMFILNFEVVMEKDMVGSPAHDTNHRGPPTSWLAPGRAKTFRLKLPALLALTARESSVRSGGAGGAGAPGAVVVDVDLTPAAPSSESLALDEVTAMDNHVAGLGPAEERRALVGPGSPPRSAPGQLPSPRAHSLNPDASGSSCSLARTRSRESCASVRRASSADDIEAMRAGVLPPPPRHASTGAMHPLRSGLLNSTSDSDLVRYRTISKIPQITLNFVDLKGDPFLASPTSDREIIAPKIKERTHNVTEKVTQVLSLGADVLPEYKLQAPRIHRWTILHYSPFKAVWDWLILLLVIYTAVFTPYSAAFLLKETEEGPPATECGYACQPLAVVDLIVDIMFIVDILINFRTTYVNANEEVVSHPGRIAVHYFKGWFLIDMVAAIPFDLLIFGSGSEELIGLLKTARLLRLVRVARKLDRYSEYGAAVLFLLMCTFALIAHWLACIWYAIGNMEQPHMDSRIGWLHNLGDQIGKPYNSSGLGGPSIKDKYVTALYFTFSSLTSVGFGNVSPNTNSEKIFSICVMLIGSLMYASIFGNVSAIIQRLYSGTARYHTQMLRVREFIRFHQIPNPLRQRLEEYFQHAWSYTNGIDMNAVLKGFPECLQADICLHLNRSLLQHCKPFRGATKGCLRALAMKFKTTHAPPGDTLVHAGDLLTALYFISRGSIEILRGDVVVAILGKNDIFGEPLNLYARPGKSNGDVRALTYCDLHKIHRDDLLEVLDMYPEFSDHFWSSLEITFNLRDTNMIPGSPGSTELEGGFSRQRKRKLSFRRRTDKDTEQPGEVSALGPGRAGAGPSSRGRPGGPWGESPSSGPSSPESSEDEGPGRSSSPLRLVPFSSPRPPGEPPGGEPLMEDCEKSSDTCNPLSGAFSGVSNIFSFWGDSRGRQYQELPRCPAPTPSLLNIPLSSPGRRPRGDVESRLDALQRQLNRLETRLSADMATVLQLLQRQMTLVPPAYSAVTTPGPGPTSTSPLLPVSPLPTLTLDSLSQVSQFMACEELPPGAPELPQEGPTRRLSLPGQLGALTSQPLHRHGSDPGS
Chain of Pgp brain pump (P08183 whole entry): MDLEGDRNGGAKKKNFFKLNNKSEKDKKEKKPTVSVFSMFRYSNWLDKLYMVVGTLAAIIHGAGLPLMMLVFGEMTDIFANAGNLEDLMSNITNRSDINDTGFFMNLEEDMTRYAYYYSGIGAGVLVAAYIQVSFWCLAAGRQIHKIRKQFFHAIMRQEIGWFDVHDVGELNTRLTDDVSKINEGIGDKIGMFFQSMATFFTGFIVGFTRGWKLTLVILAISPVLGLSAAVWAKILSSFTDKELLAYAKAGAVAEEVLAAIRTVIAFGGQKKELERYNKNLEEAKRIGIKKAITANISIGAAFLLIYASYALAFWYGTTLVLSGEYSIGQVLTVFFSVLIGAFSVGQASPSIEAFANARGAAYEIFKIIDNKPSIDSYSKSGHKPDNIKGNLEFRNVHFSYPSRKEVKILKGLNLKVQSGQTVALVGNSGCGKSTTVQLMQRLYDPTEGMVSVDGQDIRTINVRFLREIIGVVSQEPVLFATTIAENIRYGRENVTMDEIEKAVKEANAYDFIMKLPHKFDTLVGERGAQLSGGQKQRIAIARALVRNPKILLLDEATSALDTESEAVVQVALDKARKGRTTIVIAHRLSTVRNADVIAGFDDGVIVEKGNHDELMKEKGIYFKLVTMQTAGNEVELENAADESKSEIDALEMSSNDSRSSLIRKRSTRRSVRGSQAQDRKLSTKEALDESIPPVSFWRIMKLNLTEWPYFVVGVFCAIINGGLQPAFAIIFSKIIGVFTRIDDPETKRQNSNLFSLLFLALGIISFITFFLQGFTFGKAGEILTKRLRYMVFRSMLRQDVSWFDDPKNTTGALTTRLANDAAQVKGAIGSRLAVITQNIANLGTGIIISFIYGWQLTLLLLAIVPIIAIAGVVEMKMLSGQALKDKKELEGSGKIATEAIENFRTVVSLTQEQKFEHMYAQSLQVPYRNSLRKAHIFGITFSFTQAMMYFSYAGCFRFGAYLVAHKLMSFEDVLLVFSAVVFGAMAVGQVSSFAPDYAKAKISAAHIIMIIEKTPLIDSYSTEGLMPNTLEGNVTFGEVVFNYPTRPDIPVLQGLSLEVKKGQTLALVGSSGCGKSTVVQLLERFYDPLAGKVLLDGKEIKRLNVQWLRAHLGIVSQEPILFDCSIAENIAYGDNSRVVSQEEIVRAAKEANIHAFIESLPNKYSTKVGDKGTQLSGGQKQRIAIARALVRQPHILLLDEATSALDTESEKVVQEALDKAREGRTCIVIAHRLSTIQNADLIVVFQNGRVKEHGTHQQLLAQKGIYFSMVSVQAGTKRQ
T1 sequence (P30926 22-498): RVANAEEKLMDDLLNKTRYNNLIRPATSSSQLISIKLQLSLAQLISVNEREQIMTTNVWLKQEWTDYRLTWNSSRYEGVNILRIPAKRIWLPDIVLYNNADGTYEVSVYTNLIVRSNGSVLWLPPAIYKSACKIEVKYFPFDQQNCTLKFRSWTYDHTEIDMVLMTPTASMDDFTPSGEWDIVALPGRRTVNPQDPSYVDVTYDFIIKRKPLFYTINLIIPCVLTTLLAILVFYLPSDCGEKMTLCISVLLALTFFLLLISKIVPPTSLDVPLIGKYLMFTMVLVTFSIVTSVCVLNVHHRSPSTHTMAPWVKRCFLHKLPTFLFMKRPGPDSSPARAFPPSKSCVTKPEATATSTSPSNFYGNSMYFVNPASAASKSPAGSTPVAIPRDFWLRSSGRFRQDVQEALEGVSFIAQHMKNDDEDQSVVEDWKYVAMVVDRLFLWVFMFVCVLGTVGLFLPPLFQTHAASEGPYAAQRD
T1 sequence (P32297 32-505): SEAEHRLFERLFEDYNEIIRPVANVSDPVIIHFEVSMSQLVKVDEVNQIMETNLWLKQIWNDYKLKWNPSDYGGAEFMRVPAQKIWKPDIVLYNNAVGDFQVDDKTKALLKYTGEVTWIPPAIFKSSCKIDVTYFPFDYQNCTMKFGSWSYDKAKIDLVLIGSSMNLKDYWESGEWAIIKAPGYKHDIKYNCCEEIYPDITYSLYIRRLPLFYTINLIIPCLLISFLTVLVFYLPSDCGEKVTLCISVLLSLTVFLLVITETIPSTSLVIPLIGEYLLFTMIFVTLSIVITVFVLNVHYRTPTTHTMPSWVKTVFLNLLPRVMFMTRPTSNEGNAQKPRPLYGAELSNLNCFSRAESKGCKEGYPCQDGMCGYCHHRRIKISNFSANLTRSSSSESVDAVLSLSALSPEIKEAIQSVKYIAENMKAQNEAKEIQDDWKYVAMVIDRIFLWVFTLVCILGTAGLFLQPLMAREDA

Take `C(=C\[C@H]1CCNC1)/c1cncc(OC2CCOCC2)c1` [Compound A, (R)-3-((E)-2-(pyrrolidin-3-yl)vinyl)-5-(tetrahydropyran-4-yloxy)pyridine]: the inhibitory constant (Ki) (as a rule, the equilibrium dissociation constant of an inhibitor or competing ligand from its target) is 3.4 µM in series [1]; over 10 µM in series [9]; over 10 µM in series [9] (read-out: Rat hippocampus (α7) Ki, [3H]methyllycaconitine (MLA), rat hippocampal membranes). For the same compound, the IC50 (commonly the concentration that gives 50% inhibition) in series [2] was over 20 µM; in [7] it was 84 µM. The Pgp substrate result in series [3] is listed as “substrate for Pgp brain pump”. Besides, the “Multiple receptor screening assay, receptors hit” value is “only to neuronal nicotinic receptors (α-BnTx insensitive)” in [4] and “Only nicotinic” in series [4] (listed as (R)-3-(2-(pyrrolidin-3-yl)vinyl)-5-((tetrahydro-2H-pyran-4 yl)oxy)pyridine). In addition, the “enzymes contributing to metabolism” value in series [5] was “both CYP2D6 and FMO3 contributed to the metabolism”. Also, the hepatic turnover rate entry in series [6] is recorded as “low hepatic turnover rate”. Besides, the “time-dependent inhibition of CYP2B6” value in series [8] was “no evidence of time-dependent inhibition”.
